Measured values from ChEMBL document CHEMBL5346903, “Discovery of novel and bioavailable histone deacetylases and cyclin-dependent kinases dual inhibitor to impair the stemness of leukemia cells” (Eur J Med Chem, 2023).
Each block holds one compound with its values, some of them ahead of it.

Key:
[1] = target: Cyclin-dependent kinase 9 (Homo sapiens, UniProt P50750); experiment: Inhibition of CDK9 (unknown origin) preincubated for 20 mins followed by [gamma-33P]ATP addition measured after 120 mins in presence of ATP by Hot-SpotSM kinase assay
Histone deacetylase 2 = Histone deacetylase 2 (Homo sapiens, UniProt Q92769); experiment: Inhibition of HDAC2 in human nuclear extract using Ac-Arg-Gly-Lys(Ac)-AMC as substrate at 1 uM incubated overnight by fluorescence based assay relative to control; assay type: subcellular; settings: HeLa, Nucleus
Histone deacetylase 7 = Histone deacetylase 7 (Homo sapiens, UniProt Q8WUI4); experiment: Inhibition of recombinant human HDAC7 using HDAC substrate incubated for 30 mins by fluorescence based assay
[2] = target: CDK1/Cyclin A (Homo sapiens) (UniProt P06493+P20248); experiment: Inhibition of CDK1/cyclinA2 (unknown origin) at 100 nM preincubated for 20 mins followed by [gamma-33P]ATP addition measured after 120 mins in presence of ATP by Hot-SpotSM kinase assay relative to control; assay type: protein-complex assay; settings: time 140.0 min
[3] = target: CDK6/cyclin D1 (Homo sapiens) (UniProt P24385+Q00534); experiment: Inhibition of CDK6/cyclinD1 (unknown origin) at 100 nM preincubated for 20 mins followed by [gamma-33P]ATP addition measured after 120 mins in presence of ATP by Hot-SpotSM kinase assay relative to control; assay type: protein-complex assay; settings: time 140.0 min
[4] = target: CDK6/cyclin D3 (Homo sapiens) (UniProt P30281+Q00534); experiment: Inhibition of CDK6/cyclinD3 (unknown origin) at 100 nM preincubated for 20 mins followed by [gamma-33P]ATP addition measured after 120 mins in presence of ATP by Hot-SpotSM kinase assay relative to control; assay type: protein-complex assay; settings: time 140.0 min
[5] = target: CDK9/cyclin T1 (Homo sapiens) (UniProt O60563+P50750); experiment: Inhibition of CDK9/cyclinT1 (unknown origin) at 100 nM preincubated for 20 mins followed by [gamma-33P]ATP addition measured after 120 mins in presence of ATP by Hot-SpotSM kinase assay relative to control; assay type: protein-complex assay; settings: time 140.0 min
HL-60 [6] = experiment: Induction of apoptosis in human HL-60 cells assessed as viable cells at 0.5 uM incubated for 48 hrs by annexin V-FITC/PI satining based flow cytometry (reference value: 97.4 %); assay type: functional; settings: read-out: Activity
HL-60 [7] = experiment: Induction of apoptosis in human HL-60 cells assessed as viable cells at 1 uM incubated for 48 hrs by annexin V-FITC/PI satining based flow cytometry (reference value: 97.4 %); assay type: functional; settings: read-out: Activity
HL-60 [8] = experiment: Induction of apoptosis in human HL-60 cells assessed as early apoptotic cells at 0.5 uM incubated for 48 hrs by annexin V-FITC/PI satining based flow cytometry (reference value: 1.24 %); assay type: functional
HL-60 [9] = experiment: Induction of apoptosis in human HL-60 cells assessed as necrotic cells at 2 uM incubated for 48 hrs by annexin V-FITC/PI satining based flow cytometry (reference value: 0.00 %); assay type: functional
U-937 [10] = experiment: Induction of apoptosis in human U-937 cells assessed as early apoptotic cells at 0.2 uM incubated for 48 hrs by annexin V-FITC/PI satining based flow cytometry (reference value: 0.945 %); assay type: functional
U-937 [11] = experiment: Induction of apoptosis in human U-937 cells assessed as late apoptotic cells at 1 uM incubated for 48 hrs by annexin V-FITC/PI satining based flow cytometry (reference value: 7.10 %); assay type: functional
U-937 [12] = experiment: Induction of apoptosis in human U-937 cells assessed as necrotic cells at 0.2 uM incubated for 48 hrs by annexin V-FITC/PI satining based flow cytometry (reference value: 1.96 %); assay type: functional
HL-60 [13] = experiment: Induction of differentiation in human HL-60 cells assessed as increase in CD11b positive cells at 1 uM incubated for 24 hrs by FITC staining based flow cytometry (reference value: 1.45 %); assay type: functional
[14] = Cytotoxicity against human Kasumi 1 cells assessed as CD34positive CD38negative leukemic stem cell-like cells sub-population at 0.5 uM incubated for 24 hrs by APC/FITC satining based flow cytometry (reference value: 96.8 %); assay type: functional
[15] = Cytotoxicity against human Kasumi 1 cells assessed as CD34positive CD38negative leukemic stem cell-like cells sub-population at 1 uM incubated for 24 hrs by APC/FITC satining based flow cytometry (reference value: 96.8 %); assay type: functional
[16] = Clearance in Sprague-Dawley rat at 5 mg/kg, iv measured upto 6 hrs by LC/MS-MS analysis; assay type: ADME, organism-based; settings: in vivo
[17] = MRT in Sprague-Dawley rat at 5 mg/kg, iv measured upto 6 hrs by LC/MS-MS analysis; assay type: ADME, organism-based; settings: in vivo
[18] = AUC in Sprague-Dawley rat at 5 mg/kg, iv measured upto 6 hrs by LC/MS-MS analysis; assay type: ADME, organism-based; design: dose 5 mg/kg, time < 6 hrs, route iv; settings: in vivo
HL-60 [19] = experiment: Induction of apoptosis in human HL-60 cells assessed as viable cells at 2.5 uM incubated for 48 hrs by annexin V-FITC/PI satining based flow cytometry (reference value: 94.7 %); assay type: functional; settings: read-out: Activity
HL-60 [20] = experiment: Induction of apoptosis in human HL-60 cells assessed as viable cells at 5 uM incubated for 48 hrs by annexin V-FITC/PI satining based flow cytometry (reference value: 94.7 %); assay type: functional; settings: read-out: Activity
HL-60 [21] = experiment: Induction of apoptosis in human HL-60 cells assessed as necrotic cells at 1.2 uM incubated for 48 hrs by annexin V-FITC/PI satining based flow cytometry (reference value: 0.04 %); assay type: functional
U-937 [22] = experiment: Induction of apoptosis in human U-937 cells assessed as viable cells at 1.2 uM incubated for 48 hrs by annexin V-FITC/PI satining based flow cytometry (reference value: 93.7 %); assay type: functional; settings: read-out: Activity
U-937 [23] = experiment: Induction of apoptosis in human U-937 cells assessed as necrotic cells at 2.5 uM incubated for 48 hrs by annexin V-FITC/PI satining based flow cytometry (reference value: 0.102 %); assay type: functional
HL-60 [24] = experiment: Induction of differentiation in human HL-60 cells assessed as increase in CD11b positive cells at 0.6 uM incubated for 24 hrs by FITC staining based flow cytometry (reference value: 1.12 %); assay type: functional
HL-60 [25] = experiment: Induction of differentiation in human HL-60 cells assessed as increase in CD11b positive cells at 1.2 uM incubated for 24 hrs by FITC staining based flow cytometry (reference value: 1.12 %); assay type: functional
U-937 [26] = experiment: Induction of differentiation in human U-937 cells assessed as increase in CD11b positive cells at 1.2 uM incubated for 48 hrs by FITC staining based flow cytometry (reference value: […] %); assay type: functional
U-937 [27] = experiment: Induction of differentiation in human U-937 cells assessed as increase in CD11b positive cells at 2.5 uM incubated for 48 hrs by FITC staining based flow cytometry (reference value: […] %); assay type: functional
[28] = Cytotoxicity against human Kasumi 1 cells assessed as CD34positive CD38negative leukemic stem cell-like cells sub-population at 1 uM incubated for 24 hrs by APC/FITC satining based flow cytometry (reference value: 95.8 %); assay type: functional
[29] = Cytotoxicity against human Kasumi 1 cells assessed as CD34positive CD38negative leukemic stem cell-like cells sub-population at 2 uM incubated for 24 hrs by APC/FITC satining based flow cytometry (reference value: 95.8 %); assay type: functional

Chain of Histone deacetylase 2 (Q92769 whole entry): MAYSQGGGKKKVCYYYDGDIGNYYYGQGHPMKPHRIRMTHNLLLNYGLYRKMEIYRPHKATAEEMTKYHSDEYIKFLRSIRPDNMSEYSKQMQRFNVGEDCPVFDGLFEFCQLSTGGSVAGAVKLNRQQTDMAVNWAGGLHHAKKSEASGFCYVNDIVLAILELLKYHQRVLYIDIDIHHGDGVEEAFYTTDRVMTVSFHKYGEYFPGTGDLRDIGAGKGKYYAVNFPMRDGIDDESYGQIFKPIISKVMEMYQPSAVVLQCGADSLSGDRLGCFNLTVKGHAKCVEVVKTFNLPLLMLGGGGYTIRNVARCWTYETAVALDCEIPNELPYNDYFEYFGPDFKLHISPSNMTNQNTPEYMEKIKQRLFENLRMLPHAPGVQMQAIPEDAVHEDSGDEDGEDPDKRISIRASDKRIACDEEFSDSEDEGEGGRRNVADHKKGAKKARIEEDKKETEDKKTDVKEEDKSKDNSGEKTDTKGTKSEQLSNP
Chain of Cyclin-dependent kinase 9 (P50750 whole entry): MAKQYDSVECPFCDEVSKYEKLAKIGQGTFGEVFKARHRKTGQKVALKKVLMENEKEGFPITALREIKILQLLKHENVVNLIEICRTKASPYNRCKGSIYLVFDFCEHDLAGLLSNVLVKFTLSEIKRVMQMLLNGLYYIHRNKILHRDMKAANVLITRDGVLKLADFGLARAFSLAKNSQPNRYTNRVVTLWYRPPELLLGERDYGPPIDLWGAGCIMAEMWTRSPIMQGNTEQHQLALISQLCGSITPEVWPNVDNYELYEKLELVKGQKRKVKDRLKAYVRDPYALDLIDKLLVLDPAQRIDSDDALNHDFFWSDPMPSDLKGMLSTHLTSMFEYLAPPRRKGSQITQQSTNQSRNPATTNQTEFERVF
Chain of Histone deacetylase 7 (Q8WUI4 whole entry): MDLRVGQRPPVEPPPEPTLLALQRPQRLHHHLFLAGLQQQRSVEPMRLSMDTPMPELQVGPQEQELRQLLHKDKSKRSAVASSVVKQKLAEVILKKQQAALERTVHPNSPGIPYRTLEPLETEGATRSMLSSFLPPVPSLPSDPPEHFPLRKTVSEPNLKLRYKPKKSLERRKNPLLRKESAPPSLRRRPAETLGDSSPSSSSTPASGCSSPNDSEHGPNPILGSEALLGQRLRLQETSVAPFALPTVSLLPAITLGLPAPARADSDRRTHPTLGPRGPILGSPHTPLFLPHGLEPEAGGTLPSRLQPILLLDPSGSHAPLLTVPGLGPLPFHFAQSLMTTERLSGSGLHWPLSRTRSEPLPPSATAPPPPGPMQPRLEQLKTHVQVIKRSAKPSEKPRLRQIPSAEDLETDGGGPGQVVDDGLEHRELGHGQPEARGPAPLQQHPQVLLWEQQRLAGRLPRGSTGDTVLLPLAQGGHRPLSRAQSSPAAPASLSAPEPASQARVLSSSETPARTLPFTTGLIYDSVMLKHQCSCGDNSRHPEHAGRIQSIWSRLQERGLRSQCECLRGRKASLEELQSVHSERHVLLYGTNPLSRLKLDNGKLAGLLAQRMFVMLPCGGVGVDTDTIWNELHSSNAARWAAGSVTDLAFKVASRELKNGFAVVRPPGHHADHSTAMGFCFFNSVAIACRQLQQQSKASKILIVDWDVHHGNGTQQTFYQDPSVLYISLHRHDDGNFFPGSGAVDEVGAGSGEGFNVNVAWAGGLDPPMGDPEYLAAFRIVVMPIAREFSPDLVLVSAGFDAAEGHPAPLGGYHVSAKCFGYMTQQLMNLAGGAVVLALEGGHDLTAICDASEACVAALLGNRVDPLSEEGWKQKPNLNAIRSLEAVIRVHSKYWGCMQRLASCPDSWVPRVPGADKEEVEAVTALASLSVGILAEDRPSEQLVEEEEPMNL
Chain of CDK1/Cyclin A (Homo sapiens) (P06493 whole entry, looked up): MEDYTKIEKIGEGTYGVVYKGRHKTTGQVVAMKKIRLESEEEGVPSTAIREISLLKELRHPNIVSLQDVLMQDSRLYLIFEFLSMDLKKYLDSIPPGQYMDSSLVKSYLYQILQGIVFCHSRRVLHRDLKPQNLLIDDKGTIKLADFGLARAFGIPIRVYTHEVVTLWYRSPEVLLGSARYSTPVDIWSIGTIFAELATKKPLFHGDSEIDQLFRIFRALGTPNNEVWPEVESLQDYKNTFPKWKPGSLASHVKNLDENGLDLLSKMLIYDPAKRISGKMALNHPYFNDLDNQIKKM
Chain of CDK1/Cyclin A (Homo sapiens) (P20248 whole entry, looked up): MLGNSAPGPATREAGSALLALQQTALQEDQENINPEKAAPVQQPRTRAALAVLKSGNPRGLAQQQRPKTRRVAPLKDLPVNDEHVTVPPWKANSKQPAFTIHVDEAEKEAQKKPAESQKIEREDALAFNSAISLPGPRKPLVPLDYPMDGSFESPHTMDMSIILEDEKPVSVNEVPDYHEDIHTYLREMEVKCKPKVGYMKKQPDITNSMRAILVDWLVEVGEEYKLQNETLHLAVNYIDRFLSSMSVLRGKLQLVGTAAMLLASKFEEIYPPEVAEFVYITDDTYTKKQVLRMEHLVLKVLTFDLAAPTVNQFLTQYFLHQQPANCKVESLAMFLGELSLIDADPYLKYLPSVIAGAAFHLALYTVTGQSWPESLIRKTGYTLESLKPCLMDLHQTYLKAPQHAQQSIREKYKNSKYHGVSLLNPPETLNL

IC50 [1]: < 100 nM
inhibition (Histone deacetylase 2): 100%
IC50 (Histone deacetylase 7): > 1000 nM
inhibition [2]: 31%
inhibition [3]: 58.2%
inhibition [4]: 21.4%
inhibition [5]: 98.3%
clearance [16]: 88.5 mL/min/kg
MRT [17]: 23.4 min
AUC [18]: 836 ng·h/mL
Structure (SMILES): Nc1ccccc1NC(=O)c1ccc(NC(=O)c2n[nH]cc2NC(=O)c2c(Cl)cccc2Cl)cc1
viability at 0.5 µM (HL-60 [6]): 94.4%
viability at 1 µM (HL-60 [7]): 43.5%
Activity (HL-60 [8]): 2.42%
Activity (HL-60 [9]): 4.87%
Activity (U-937 [10]): 1.56%
Activity (U-937 [11]): 34.1%
Activity (U-937 [12]): 2.9%
Activity (HL-60 [13]): 37.6%
Activity [14]: 45.4%
Activity [15]: 35.3%

Structure (SMILES): Nc1cc(F)ccc1NC(=O)c1ccc(CNC(=O)/C=C/c2cccnc2)cc1 [TUCIDINOSTAT]
viability at 2.5 µM (HL-60 [19]): 56.1%
viability at 5 µM (HL-60 [20]): 18.1%
Activity (HL-60 [21]): 0.04%
viability at 1.2 µM (U-937 [22]): 90.3%
Activity (U-937 [23]): 0.084%
Activity (HL-60 [24]): 24.4%
Activity (HL-60 [25]): 51%
Activity (U-937 [26]): 5%
Activity (U-937 [27]): 5.59%
Activity [28]: 88.5%
Activity [29]: 77.8%
